Source: patent US12624034B2, “Non-covalent modifiers of AKT1 and uses thereof” (Terremoto Biosciences, Inc., priority 2023, dated 2026)
Read-outs that look alike come from different tables or passages of the source.

Tests used:
AKT1 WT = biological target: T1, AKT1 WT (Homo sapiens, UniProt P31749); assay: Live cell AKT1 WT target engagement by NanoBRET competitive probe displacement in HEK293 cells; assay type: binding; conditions: 2 h at 37° C., read-out: AKT1 WT IC50
T1 construct: expressed in transfected cells; host or cells: HEK293

AKT2 = biological target: T2, AKT2 (Homo sapiens, UniProt P31751); assay: Live cell AKT2 target engagement by NanoBRET competitive probe displacement in HEK293 cells; assay type: binding; conditions: 2 h at 37° C., read-out: AKT2 IC50
T2 construct: expressed in transfected cells; host or cells: HEK293

[1] = NanoBRET competitive probe displacement, live HEK293 cells
[2] = NanoBRET live cell target engagement, HEK293 cells

T1 sequence (P31749 whole entry): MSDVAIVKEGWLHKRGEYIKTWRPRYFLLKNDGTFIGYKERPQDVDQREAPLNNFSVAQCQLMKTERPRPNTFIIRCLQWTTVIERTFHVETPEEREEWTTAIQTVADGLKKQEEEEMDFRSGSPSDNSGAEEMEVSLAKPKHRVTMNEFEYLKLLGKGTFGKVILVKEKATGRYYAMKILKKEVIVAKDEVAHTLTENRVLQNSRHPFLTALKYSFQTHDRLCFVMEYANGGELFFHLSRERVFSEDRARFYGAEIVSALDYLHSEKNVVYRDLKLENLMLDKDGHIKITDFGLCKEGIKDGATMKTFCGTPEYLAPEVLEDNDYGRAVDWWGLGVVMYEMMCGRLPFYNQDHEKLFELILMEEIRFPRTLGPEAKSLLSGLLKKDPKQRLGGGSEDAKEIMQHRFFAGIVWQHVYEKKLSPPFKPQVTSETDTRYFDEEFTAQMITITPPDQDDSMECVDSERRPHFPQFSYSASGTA
T2 sequence (P31751 whole entry): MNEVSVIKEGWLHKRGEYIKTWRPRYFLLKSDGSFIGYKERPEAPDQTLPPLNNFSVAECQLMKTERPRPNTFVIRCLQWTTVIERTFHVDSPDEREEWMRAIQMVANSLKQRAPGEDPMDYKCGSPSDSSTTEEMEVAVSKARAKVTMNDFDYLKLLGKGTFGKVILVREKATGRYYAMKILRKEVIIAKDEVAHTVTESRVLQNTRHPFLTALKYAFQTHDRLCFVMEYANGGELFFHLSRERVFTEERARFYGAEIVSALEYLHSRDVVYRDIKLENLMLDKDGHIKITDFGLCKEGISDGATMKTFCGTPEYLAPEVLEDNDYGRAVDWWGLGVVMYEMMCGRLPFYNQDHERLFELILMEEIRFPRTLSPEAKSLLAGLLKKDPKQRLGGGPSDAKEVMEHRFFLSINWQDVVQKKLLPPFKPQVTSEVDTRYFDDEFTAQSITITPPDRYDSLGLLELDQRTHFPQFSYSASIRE

IC50 (AKT1 WT; [1])	IC50 (AKT2; [1])	IC50 (AKT1 WT; [2])	IC50 (AKT2; [2])	Compound
7.04 nM	344 nM	–	–	COC1CN(c2ccn(-c3ccc4nc(-c5cccnc5N)n(-c5ccc6c(c5)CC(F)[C@@H]6NC5CCN(C(=O)C6CC6)CC5)c4n3)n2)C1 (some centres unmarked) [Compound 553]
–	–	586 nM	2030 nM	Cn1cc(Cc2nncn2[C@H]2CCc3cc(-n4c(-c5cccnc5N)nc5ccc(-n6cccn6)nc54)ccc32)cn1 [Compound 228]
–	–	22.8 nM	111 nM	Nc1ncccc1-c1nc2ccc(-n3cccn3)nc2n1-c1ccc2c(c1)CC[C@@H]2NC(=O)c1ccnc2c1CCC2 [Compound 235]
45.6 nM	897 nM	–	–	Nc1ncccc1-c1nc2ccc(-n3cccn3)nc2n1-c1ccc2c(c1)CC[C@@H]2NC1CCc2cc(O)ccc21 (single isomer, unassigned) [Compound 499]
66.1 nM	3780 nM	–	–	Nc1ncccc1-c1nc2ccc(-n3ccc(C4COC4)n3)nc2n1-c1ccc2c(c1)CC[C@@H]2NC1CCN(C(=O)C2CC2)CC1 [Compound 597]
–	–	19.8 nM	284 nM	Nc1ncccc1-c1nc2ccc(N3CCOCC3)nc2n1-c1ccc2c(c1)CC[C@@H]2NC(=O)c1ccc(C(F)F)nc1 [Compound 136]
–	–	57.8 nM	158 nM	Cc1ncccc1C(=O)N[C@H]1CCc2cc(-n3c(-c4cccnc4N)nc4c(F)cc(-n5cccn5)nc43)ccc21 [Compound 212]
15.9 nM	1760 nM	–	–	Nc1ncccc1-c1nc2ccc(-n3cccn3)nc2n1-c1ccc2c(c1)CC[C@@H]2N(C1CC1)C1CCN(C(=O)C2CC2)CC1 [Compound 557]
–	–	45.6 nM	1720 nM	Cc1cnc(-c2ccc3nc(-c4cccnc4N)n(-c4ccc5c(c4)CC[C@@H]5n4ccnn4)c3n2)s1 [Compound 303]
–	–	508 nM	3180 nM	Cc1ccc(C(C)N[C@H]2CCc3cc(-n4c(-c5cccnc5N)nc5ccc(-n6cccn6)nc54)ccc32)cn1 (some centres unmarked) [Compound 154]
109 nM	3090 nM	–	–	Nc1ncccc1-c1nc2ccc(-n3cccn3)nc2n1-c1ccc2c(c1)CC[C@@H]2NC1CCN(C(=O)[C@H]2CCO2)CC1 [Compound 425]
–	–	61.7 nM	984 nM	Nc1ncccc1-c1nc2ccc(-n3cccn3)nc2n1-c1ccc2c(c1)CC[C@@H]2NC(=O)c1cccnc1CO [Compound 152, (S)—N-(5-(2-(2-aminopyridin-3-yl)-5-(1H-pyrazol-1-yl)-3H-imidazo[4,5-b]pyridin-3-yl)-2,3-dihydro-1H-inden-1-yl)-2-(hydroxymethyl)nicotinamide]
–	–	363 nM	5810 nM	CN1CC(c2cn([C@H]3CCc4cc(-n5c(-c6cccnc6N)nc6ccc(-n7cccn7)nc65)ccc43)nn2)C1 [Compound 251]
–	–	9.15 nM	102 nM	Nc1ncccc1-c1nc2ccc(-n3cccn3)nc2n1-c1ccc2c(c1)CC[C@@H]2NC(=O)c1cnc(C(F)F)nc1 [Compound 114]
–	–	526 nM	6850 nM	CC(=O)NCC#Cc1ccc2nc(-c3cccnc3N)n(-c3ccc4c(c3)CC[C@@H]4NC(=O)c3ccc(C)nc3)c2n1 [Compound 327]
> 1000 nM	> 10000 nM	–	–	CS(=O)(=O)Nc1ccn(-c2ccc3nc(-c4cccnc4N)n(-c4ccc5c(c4)CC[C@@H]5NC4CCN(C(=O)C5CC5)CC4)c3n2)n1 [Compound 582]
–	–	198 nM	763 nM	Cc1cc2ncn([C@H]3CCc4cc(-n5c(-c6cccnc6N)nc6ccc(-n7cccn7)nc65)ccc43)c(=O)c2cn1 [Compound 91, (S)-3-(5-(2-(2-aminopyridin-3-yl)-5-(1H-pyrazol-1-yl)-3H-imidazo[4,5-b]pyridin-3-yl)-2,3-dihydro-1H-inden-1-yl)-7-methylpyrido[4,3-d]pyrimidin-4(3H)-one]
–	–	23.9 nM	617 nM	Nc1ncccc1-c1nc2ccc(-c3ccn(C(F)F)n3)nc2n1-c1ccc2c(c1)CC[C@@H]2n1ccnn1 [Compound 315]
71.5 nM	7510 nM	–	–	Cn1ccc(Oc2ccc3nc(-c4cccnc4N)n(-c4ccc5c(c4)CC[C@@H]5NC(=O)c4cnc(C(F)F)s4)c3n2)n1 [Compound 558]

IC50 (AKT1 WT; [1])	IC50 (AKT2; [1])	IC50 (AKT1 WT; [2])	IC50 (AKT2; [2])	Compound
5.11 nM	430 nM	–	–	Cc1nc(C2CC2)ccc1C(=O)N[C@H]1CCc2cc(-n3c(-c4cccnc4N)nc4ccc(-n5nccn5)nc43)ccc21 [Compound 539]
–	–	25.5 nM	122 nM	Nc1ncccc1-c1nc2ccc(-n3cccn3)nc2n1-c1ccc2c(c1)CC[C@@H]2NC(=O)c1ccc2[nH]nnc2c1 [Compound 190]
–	–	330 nM	> 10000 nM	Cc1cnc(C)c(C(=O)N[C@H]2CCc3cc(-n4c(-c5cccnc5N)nc5ccc(-n6cccn6)nc54)ccc32)n1 [Compound 183]
5.64 nM	57 nM	–	–	COc1cc(C(=O)N[C@H]2CCc3cc(-n4c(-c5cccnc5N)nc5ccc(-n6cccn6)nc54)ccc32)sn1 [Compound 429]
27 nM	1080 nM	–	–	Nc1ncccc1-c1nc2ccc(-n3cccn3)nc2n1-c1ccc2c(c1)CC[C@@H]2NC1CCc2cnccc2C1 (single isomer, unassigned) [Compound 463]
–	–	> 1000 nM	> 10000 nM	Nc1ncccc1-c1nc2ccc(-n3cccn3)nc2n1-c1ccc2c(c1)CC[C@H]2n1ccnn1 [Compound 227]
–	–	120 nM	2220 nM	Cc1ccc(C(C)N[C@H]2CCc3cc(-n4c(-c5cccnc5N)nc5ccc(-n6cccn6)nc54)ccc32)cn1 (some centres unmarked) [Compound 153]
–	–	18.2 nM	1320 nM	Nc1ncccc1-c1nc2ccc(-n3cccn3)nc2n1-c1ccc2c(c1)CC[C@@H]2n1cc(C(F)F)nn1 [Compound 326]
6.42 nM	42.1 nM	–	–	Cc1ccc(C(=O)N[C@H]2CCc3cc(-n4c(-c5cccnc5N)nc5ccc(-n6ccc(OC(F)F)n6)nc54)ccc32)cn1 [Compound 535]
–	–	9.54 nM	163 nM	Nc1ncccc1-c1nc2ccc(-n3cccn3)nc2n1-c1ccc2c(c1)CC[C@@H]2NC(=O)c1ccc(F)nc1 [Compound 264]
93.4 nM	2800 nM	–	–	CN(CCC1CC1)[C@H]1CCc2cc(-n3c(-c4cccnc4N)nc4ccc(-n5cccn5)nc43)ccc21 [Compound 458]
–	–	12.3 nM	83.8 nM	Nc1ncccc1-c1nc2ccc(-n3cccn3)nc2n1-c1ccc2c(c1)CC[C@@H]2NC(=O)c1ccc(F)c(O)c1 [Compound 293]
52.4 nM	2420 nM	–	–	Nc1ncccc1-c1nc2ccc(-n3ccc(Oc4ccccn4)n3)nc2n1-c1ccc2c(c1)CC[C@@H]2NC1CCN(C(=O)C2CC2)CC1 [Compound 574]
–	–	141 nM	4290 nM	Nc1ncccc1-c1nc2ccc(-n3nccn3)nc2n1-c1ccc2c(c1)CC[C@@H]2n1cc(C2CC2)nn1 [Compound 352]
–	–	12.9 nM	73.2 nM	CNC(=O)c1cccc(C(=O)N[C@H]2CCc3cc(-n4c(-c5cccnc5N)nc5ccc(-n6cccn6)nc54)ccc32)c1 [Compound 292]
–	–	6.98 nM	9.41 nM	Nc1ncccc1-c1nc2ccc(-n3cccn3)nc2n1-c1ccc2c(c1)CC[C@@H]2NC(=O)c1ccc(N2CCOCC2)nc1 [Compound 95]
–	–	> 1000 nM	> 10000 nM	Cc1ccc(C(=O)N[C@H]2CC(F)(F)c3cc(-n4c(-c5cccnc5N)nc5ccc(-n6cccn6)nc54)ccc32)cn1 [Compound 299]
5.67 nM	268 nM	–	–	COc1csc(-c2ccc3nc(-c4cccnc4N)n(-c4ccc5c(c4)CC(F)[C@@H]5NC4CCN(C(=O)C5CC5)CC4)c3n2)n1 (some centres unmarked) [Compound 559]
